Measurements published in patent US20250206724A1, “SUBSTITUTED 3-AMINO INDAZOLE DERIVATIVES AS KINASE INHIBITORS” (NERVIANO MEDICAL SCIENCES S.R.L., priority 2022, published 2025).
Structures can show the parent of a compound that is named as a salt. Where two headings read alike, the source gives them in different places.

What was measured:
EoL-1-cell = assay: Cytotoxicity assay (CellTiterGlo, 72 hours treatment), EoL-1; assay type: cell-based, Human; conditions: ATP determination, read-out: Cell line IC50 EoL-1-cell
Protocol: (§1) Cell Lines and Cell Cultures
(§2) All cell lines were seeded at a density ranging from 2,400 to 8,000 cells/well in 384-well cell culture microplates and incubated at […] in a humidified 5% […] atmosphere 24 hours before treatment. Compound solutions were directly administered to the cells using the D300e digital dispenser (Tecan) to obtain scalar final concentrations ranging from 5 nM to 10 μM (duplicate wells for each point), with 80 uL final volume per well. The final DMSO concentration in test wells was adjusted to 0.1% (v/v); control wells were mock-treated and contained the same final concentration of DMSO.
(§3) Cell viability was determined after 72 hours treatment by ATP determination in each test well with a luciferase-based detection system (CellTiterGlo, Promega, Madison, WI, USA), following manufacturer's instructions. The intensity of emitted light was measured using an EnVision reader (PerkinElmer, Waltham, MA USA) and expressed as RLU. One to three independent experiments were performed for each cell line, as indicated.
(§4) Analysis of Antiproliferative Data
(§5) Cell growth inhibitory activity was evaluated comparing treated versus control data using the Assay Explorer software suite (Symix Technologies Inc.). IC50s values were calculated by sigmoidal fitting interpolation using the following quadriparametric Hill equation: […]
(§6) The Top, Bottom and Hill slope parameters were left free to assume any value, but only curves whose Hill slope had values between 0.5 and 4 were arbitrarily considered acceptable and used to calculate the average IC50s. Curves too steep (HillSlope≥4) or too slight (HillSlope≤0.5) were not included (Table C).

MOLM-13 = assay: Cytotoxicity assay (CellTiterGlo, 72 hours treatment), MOLM-13; assay type: cell-based, Human; conditions: MOLM-13 acute myeloid leukemia cells, ATP determination, read-out: Cell line IC50 MOLM-13
Protocol: as §1, §2, §3, §4, §5, §6

NB-4 = assay: Cytotoxicity assay (CellTiterGlo, 72 hours treatment), NB-4; assay type: cell-based, Human; conditions: NB-4 acute myeloid leukemia cells, ATP determination, read-out: Cell line IC50 NB-4
Protocol: as §1, §2, §3, §4, §5, §6

CDK11A = biological target: T1, CDK11A (Homo sapiens, UniProt Q9UQ88); conditions: displacement of SNS-032-Atto590 probe (0.002 μM) from CDK11A-p58 (0.032 uM), fluorescence polarization;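 note: compound preincubated 30 min with CDK11A-p58, then probe added and polarization (mP) read 15 min later, 0% displacement is probe plus enzyme, 100% is probe alone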
T1 sequence (Q9UQ88 346-783): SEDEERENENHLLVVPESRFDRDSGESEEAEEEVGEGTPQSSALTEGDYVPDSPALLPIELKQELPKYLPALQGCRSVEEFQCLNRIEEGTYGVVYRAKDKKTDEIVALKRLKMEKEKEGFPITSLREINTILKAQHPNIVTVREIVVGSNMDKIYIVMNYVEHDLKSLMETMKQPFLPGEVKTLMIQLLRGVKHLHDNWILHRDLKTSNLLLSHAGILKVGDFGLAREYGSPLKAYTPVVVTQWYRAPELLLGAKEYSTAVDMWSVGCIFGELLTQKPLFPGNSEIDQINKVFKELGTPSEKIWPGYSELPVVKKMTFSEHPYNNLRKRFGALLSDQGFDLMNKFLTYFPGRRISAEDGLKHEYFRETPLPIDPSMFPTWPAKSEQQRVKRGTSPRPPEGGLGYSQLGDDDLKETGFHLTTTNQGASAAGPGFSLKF

[1] = Homo sapiens, EOL1, 72 h, EoL-1 acute myeloid leukemia cells

DC50 (CDK11A) [nM] | SMILES | IC50 (EoL-1-cell; [1]) [nM] | IC50 (MOLM-13; Homo sapiens, MOLM-13, 72 h) [nM] | IC50 (NB-4; Homo sapiens, NB-4, 72 h) [nM] | also measured
23 | N#Cc1ccc(Cl)c(-c2ccc3[nH]nc(NC(=O)[C@@H]4CCCNC4)c3c2)c1 [compound 174, (3R)-N-[5-(2-Chloro-5-cyanophenyl)-1H-indazol-3-yl]piperidine-3-carboxamide hydrochloride] | 165 | 190 | 171 | –
31 | CCNC1CC(C(=O)Nc2n[nH]c3ccc(-c4cc(C#N)ccc4Cl)cc23)C1 (stereo not drawn) [compound 152, N-[5-(2-Chloro-5-cyanophenyl)-1H-indazol-3-yl]-3-(ethylamino)cyclobutanecarboxamide hydrochloride] | 191 | 203 | 226 | –
181 | CC1(C)CCC(C(=O)Nc2n[nH]c3ccc(-c4cc(C#N)ccc4Cl)cc23)CN1 (single isomer, unassigned; (-)) [compound 203, (−)-N-[5-(2-Chloro-5-cyanophenyl)-1H-indazol-3-yl]-6,6-dimethylpiperidine-3-carboxamide] | – | – | – | IC50 (EoL-1-cell; EoL-1 acute myeloid leukemia cells): 1250 nM; IC50 (MOLM-13): 1380 nM; IC50 (NB-4): 1320 nM
30 | N#Cc1ccc(Cl)c(-c2ccc3[nH]nc(NC(=O)[C@@H]4CCC5(CCCC5)NC4)c3c2)c1 (single isomer, unassigned) [compound 204, (8+)-N-[5-(2-Chloro-5-cyanophenyl)-1H-indazol-3-yl]-6-azaspiro[4.5]decane-8-carboxamide hydrochloride] | 237 | 194 | 211 | –
44 | CNC1CC(C(=O)Nc2n[nH]c3ccc(-c4c(Cl)cccc4Cl)cc23)C1 (stereo not drawn) [compound 145, N-[5-(2,6-Dichlorophenyl)-1H-indazol-3-yl]-3-(methylamino)cyclobutanecarboxamide hydrochloride] | 663 | 483 | 520 | –
21 | O=C(Nc1n[nH]c2ccc(-c3c(Cl)cccc3Cl)cc12)[C@@H]1CCCNC1 [compound 169, (3R)-N-[5-(2,6-Dichlorophenyl)-1H-indazol-3-yl]piperidine-3-carboxamide hydrochloride] | 281 | 219 | 317 | –
21 | C[C@@H]1CC[C@@H](C(=O)Nc2n[nH]c3ccc(-c4cc(C#N)ccc4Cl)cc23)CN1 [compound 179, (3R,6R)-N-[5-(2-Chloro-5-cyanophenyl)-1H-indazol-3-yl]-6-methylpiperidine-3-carboxamide trifluoroacetate] | 259 | 414 | 335 | –
23 | Cc1ccc(F)c(-c2ccc3[nH]nc(NC(=O)[C@@H]4CCCNC4)c3c2)c1 [cpd 32, (3R)-N-[5-(2-Fluoro-5-methylphenyl)-1H-indazol-3-yl]piperidine-3-carboxamide hydrochloride] | 2040 | 1510 | 2480 | –
28 | N#Cc1ccc(Cl)c(-c2ccc3[nH]nc(NC(=O)C4CCCNC4)c3c2)c1 (stereo not drawn) [compound 171, N-[5-(2-Chloro-5-cyanophenyl)-1H-indazol-3-yl]piperidine-3-carboxamide hydrochloride] | 332 | 520 | 416 | –
18 | N#Cc1ccc(Cl)c(-c2ccc3[nH]nc(NC(=O)[C@@H]4CCNC4)c3c2)c1 [compound 176, (3R)-N-[5-(2-Chloro-5-cyanophenyl)-1H-indazol-3-yl]pyrrolidine-3-carboxamide hydrochloride] | 425 | 505 | 384 | –
27 | O=C(Nc1n[nH]c2ccc(-c3c(Cl)cccc3Cl)cc12)[C@@H]1CCNC1 [compound 167, (3R)-N-[5-(2,6-Dichlorophenyl)-1H-indazol-3-yl]pyrrolidine-3-carboxamide hydrochloride] | 651 | 610 | 525 | –
19 | CC(=O)c1ccc(Cl)c(-c2ccc3[nH]nc(NC(=O)[C@@H]4CCCNC4)c3c2)c1 [cpd 33, (3R)-N-[5-(5-Acetyl-2-chlorophenyl)-1H-indazol-3-yl]piperidine-3-carboxamide hydrochloride] | 1380 | 1350 | 1560 | –
23 | O=C(Nc1n[nH]c2ccc(-c3ccc(O)cc3Cl)cc12)[C@@H]1CCCNC1 [cpd 6, (3R)-N-[5-(2-chloro-4-hydroxyphenyl)-1H-indazol-3-yl]piperidine-3-carboxamide hydrochloride] | – | – | – | –
278 | N#Cc1ccc(Cl)c(-c2ccc3[nH]nc(NC(=O)[C@H]4CCC5(CCCC5)NC4)c3c2)c1 (single isomer, unassigned) [compound 205, (8-)-N-[5-(2-Chloro-5-cyanophenyl)-1H-indazol-3-yl]-6-azaspiro[4.5]decane-8-carboxamide hydrochloride] | – | – | – | –
89 | COc1ccc(F)c(-c2ccc3[nH]nc(NC(=O)[C@@H]4CCCNC4)c3c2)c1 [cpd 20, (3R)-N-[5-(2-Fluoro-5-methoxyphenyl)-1H-indazol-3-yl]piperidine-3-carboxamide hydrochloride] | – | – | – | –
136 | CC(C)CN1CCC(C(=O)Nc2n[nH]c3ccc(-c4c(Cl)cccc4Cl)cc23)CC1 [cpd 70, N-[5-(2,6-Dichlorophenyl)-1H-indazol-3-yl]-1-(2-methylpropyl)piperidine-4-carboxamide] | – | – | – | –
1010 | CC(C)OC(=O)n1nc(NC(=O)[C@@H]2CCC(C)(C)NC2)c2cc(-c3cc(C#N)ccc3Cl)ccc21 (single isomer, unassigned) [cpd 226, hydrochloride] | – | – | – | –
50 | O=C(Nc1n[nH]c2ccc(-c3cc(Cl)ccc3Cl)cc12)C1CCCNC1 (stereo not drawn) [cpd 4, N-[5-(2,5-Dichlorophenyl)-1H-indazol-3-yl]piperidine-3-carboxamide hydrochloride] | – | – | – | –
20 | CCOc1ccc2[nH]nc(NC(=O)[C@@H]3CCCNC3)c2c1 [cpd 229, (3R)-N-(5-Ethoxy-1H-indazol-3-yl)piperidine-3-carboxamide hydrochloride] | – | – | – | –
140 | N#Cc1ccc(Cl)c(-c2ccc3[nH]nc(NC(=O)[C@H]4CNCCO4)c3c2)c1 [compound 182, (2R)-N-[5-(2-Chloro-5-cyanophenyl)-1H-indazol-3-yl]morpholine-2-carboxamide hydrochloride] | – | – | – | –
156 | O=C(Nc1n[nH]c2ccc(-c3ccc(C(F)(F)F)cc3Cl)cc12)[C@@H]1CCCNC1 [cpd 44, (3R)-N-{5-[2-Chloro-4-(trifluoromethyl)phenyl]-1H-indazol-3-yl}piperidine-3-carboxamide hydrochloride] | – | – | – | –
25 | COc1ccc(Cl)c(-c2ccc3[nH]nc(NC(=O)[C@@H]4CCCNC4)c3c2)c1 [cpd 18, (3R)-N-[5-(2-Chloro-5-methoxyphenyl)-1H-indazol-3-yl]piperidine-3-carboxamide hydrochloride] | – | – | – | –
70 | CN1CCC(C(=O)Nc2n[nH]c3ccc(-c4cc([N+](=O)[O-])ccc4Cl)cc23)CC1 [compound 137, N-[5-(2-Chloro-5-nitrophenyl)-1H-indazol-3-yl]-1-methylpiperidine-4-carboxamide trifluoroacetate] | – | – | – | –

SMILES | DC50 (CDK11A) [nM] | IC50 (EoL-1-cell; [1]) [nM] | IC50 (MOLM-13; Homo sapiens, MOLM-13, 72 h) [nM] | IC50 (NB-4; Homo sapiens, NB-4, 72 h) [nM] | also measured
O=C(Nc1n[nH]c2ccc(-c3cc([N+](=O)[O-])ccc3Cl)cc12)[C@@H]1CCCNC1 [cpd 26, (3R)-N-[5-(2-Chloro-5-nitrophenyl)-1H-indazol-3-yl]piperidine-3-carboxamide hydrochloride] | 23 | – | – | – | IC50 (EoL-1-cell; Homo sapiens, EOL1, EoL-1 acute myeloid leukemia cells): 126 nM; IC50 (MOLM-13; Homo sapiens): 154 nM; IC50 (NB-4; Homo sapiens): 141 nM
